The source of these data is patent US20170002360A1, “PROTEIN PHOSPHATASE INHIBITOR” (priority 2013, published 2017).

Data set [1] concerns DU145 prostate cancer wild type cell line. Briefly: CPT titration, loss of viability, wild-type prostate cancer cells. In kind it is cell-based. The following applies: varying concentrations of CPT; 48 hrs post CPT treatment. On the procedure:
FIG. 6A: Camptothecin (CPT) treatment of DU145 prostate cancer wild-type cell line. CPT was titrated on DU145 wild-type cells and 48 hrs post CPT treatment, the cells were examined for the loss of viability compared to control (untreated)
(§1) In addition to the described experiments, the effect of inhibiting the phosphatase PPEF1 on characterized published drug resistant cell lines was assessed. The resistant cell lines used in these experiments were DU145/RCO.1 cells, which were kindly provided by Prof. Dr. Yves Pommier from the Laboratory of Molecular Pharmacology, Center of Cancer research, National Cancer institute, Bethesda, USA. These DU145/RCO.1 cells and their resistance to CPT) have been described Urasaki et al. (Cancer Research 61, 2001, pp. 1964-1969). Initially, DU145 prostate cancer wild type cell line was treated with varying concentrations of camptothecin (CPT).

For a further data set, the system named is DU145/RCO.1 cells. Briefly: CPT titration, loss of viability, CPT resistant cells with or without PPEF1 SiRNA. The following applies: 48 hrs post CPT treatment. In kind it is cell-based.
Excerpt: FIG. 6B: Camptothecin treatment of CPT approved resistant cells. CPT was titrated on DU145/RCO.1 cells reported to be resistant to CPT. 48 hrs post CPT treatment, the cells were examined for the loss of viability compared to control (untreated)
FIG. 6C: Camptothecin treatment of CPT approved resistant cells after PPEF1 inhibition. 24 hrs post PPEF1 SiRNA treatment, CPT was titrated on DU145/RCO.1 cells reported to be resistant to CPT. 48 hrs post CPT treatment, the cells were examined for the loss of viability compared to control (untreated)
as §1
The results of these experiments can be seen in FIG. 6c.

As to `CC[C@@]1(O)C(=O)OCc2c1cc1n(c2=O)Cc2cc3ccccc3nc2-1` [CPT, camptothecin], the viability result in data set [1] is recorded as “greatly reduced”; with DU145/RCO.1 cells (varying concentrations of CPT alone), “did not significantly change”.

For the molecule “Example 2: SiRNA oligonucleotide targeting PPEF1, CAGTTCGAATCTGGTAAACAT, obtained from Qiagen (chemistry not given here)”, the “sensitivity to CPT / viability” value in the data set with DU145/RCO.1 cells (CPT titrated 24 hrs post PPEF1 SiRNA treatment) was “became sensitive and lost viability”.
